Test [1] concerns human glioma cell line U87 (wild type p53). Briefly: MTS cell viability assay, U87 cells. The class given is cell-based. Particulars: three-day treatment, read-out: IC50 of growth inhibition. In general terms: Tetrazolium assays rely on reduction of a dye to a coloured formazan, in cell work by metabolically active cells.
Text: The inhibition curves are averages of 3 independent measurements.
The target of test [2] is T1, ^synMDMX (^24-108MDMX, p53-binding domain of MDMX) (Homo sapiens, UniProt O15151).
T1 construct: MDMX (^24-108MDMX or syn MDMX); made in house; host or cells: chemical synthesis (inferred from the prefix 'syn'; no expression host named)
T1 sequence (O15151 24-108): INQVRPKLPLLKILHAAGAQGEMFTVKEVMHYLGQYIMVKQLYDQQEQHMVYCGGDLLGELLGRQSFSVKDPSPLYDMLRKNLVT
The test can be described thus: competition SPR binding to synMDMX. A general note: Surface plasmon resonance follows binding to a sensor surface in real time, without labels.

Test [3] has as its system normal cells. The conditions noted are these: cited from earlier work.

Usually IC50 stands for the concentration that gives 50% inhibition. As usually defined, the Kd is the free concentration of one partner at which half of the binding sites on the other are occupied at equilibrium, for simple one-to-one binding. Read a low Kd as tighter binding.

Consider `COc1ccc(C2=N[C@@H](c3ccc(Cl)cc3)[C@@H](c3ccc(Cl)cc3)N2C(=O)N2CCNC(=O)C2)c(OC(C)C)c1` [Nutlin-3], for which, in test [1], the IC50 is 3.8 µM.

Turning to `CC(C)C[C@@H](NC(=O)[C@H]1CCCN1C(=O)[C@@H](Cc1c[nH]c2ccccc12)NC(=O)[C@@H](Cc1c[nH]c2ccccc12)NC(=O)[C@H](N)CC(=O)O)C(=O)N[C@H](C)C(=O)N[C@H](Cc1ccccc1)C(=O)N[C@H](CCC(=O)O)C(=O)N[C@H](C)C(=O)N[C@H](CC(C)C)C(=O)N[C@H](CC(C)C)C(=O)N[C@H](CCCNC(=N)N)C(=O)O` [^DPMI-γ], the affinity in test [2], expressed as Kd, was 4.9 µM.

MI-219: in test [3], the “activation of the p53 pathway (accumulation of p53, increased MDM2 and p21)” value is “transient activation of the p53 pathway”; the “expression of PUMA and apoptosis” value was “fails to induce the expression of PUMA and apoptosis”.

The record behind these values is patent publication US20120328692A1, “POTENT D-PEPTIDE ANTAGONISTS OF MDM2 AND MDMX FOR ANTICANCER THERAPY” (UNIVERSITY OF MARYLAND, BALTIMORE, priority 2011, published 2012).
